Data: patent US20100075316A1, “METHOD FOR I[…] VITAMIN D METABOLISM” (priority 2006, published 2010)

How the values were obtained:
[1] = system: advanced prostate cancer; details: randomized trial, men with advanced prostate cancer; cited from earlier work
[2] = system: PC3; details: PC3, androgen independent human prostate cancer cells; cited from earlier work
[3] = system: LNCaP; details: androgen dependent human prostate cancer cell line; cited from earlier work
[4] = system: DU145; details: DU145, androgen independent human prostate cancer cells; cited from earlier work
[5] = system: CYP24; test: CYP24 enzyme activity in untreated and calcitriol-treated human cancer cell lines; assay type: cell-based; details: for CYP24A1 enzyme activity profiles: baseline and calcitriol-induced
Excerpt: FIG. 2 is a graphical depiction of CYP24 enzymatic activity measured in untreated and calcitriol treated human cancer cell lines.
This Example provides an analysis of CYP24 enzyme activity in untreated and calcitriol-treated human (prostate, breast, lung and colon) cancer cell lines to characterize their capacity to catabolize calcitriol.

[6] = Serum calcitriol clearance in cancer patients by CYP24 genotype; assay type: in vivo, human; details: TT/TT genotype (positions 15752 and 15774 of SEQ ID NO:1) vs TC/TC; 30 patients, oral high doses of calcitriol; p-value=0.0377
Description: Elimination half life was calculated using the equation: T1/2=0.693/β, where β is the slope of the regression line of the terminal log serum calcitriol concentration versus time.
This Example provides an analysis of clinical ramifications of certain CYP24 polymorphisms. To obtain the data presented in this Example, we analyzed CYP24 polymorphisms in the intron between exon 9 and 10 in DNA samples obtained from 30 cancer patients treated with high doses of orally administered calcitriol. […] (Smith DC, et al., Clin Cancer Res. 1999; 5: 1339-1345).

[7] = system: CYP24 mRNA; test: Semi-quantitative RT-PCR of CYP24 exon 11-12 transcripts before and after calcitriol treatment; assay type: cell-based, human; details: after calcitriol treatment
Excerpt: FIGS. 3A-3D provide graphical representations of CYP24 mRNA splicing patterns and cDNA amplification profiles. FIG. 3A provides a graphical map of the CYP24 gene from exon 9 through exon 11, an example of primer locations for obtaining cDNA using RT-PCR, and resulting products in the case of correct (280 bp) and aberrant (880 bp) splicing. FIG. 3B provides a graphical map of the CYP24 gene from exon 11 through exon 12 and RT-PCR cDNA product sizes for correctly spliced CYP24 mRNA from a CYP24 gene lacking a predictive SNP (150 bp), as well as the inclusion of intron 12 sequences in aberrantly spliced CYP24 mRNA when the predictive SNP is present (302 by transcript). FIG. 3C is a photographic representation of cDNA amplification products of unspliced or spliced CYP24 mRNA across exons 9-11 of the CYP24 mRNA. FIG. 3D is a photographic representation of cDNA amplification products across exons 11-12 of correctly spliced (150 bp) or aberrantly spliced (302 bp) CYP24 mRNA from various cancer cell lines.
Calcitriol treatment (T) modulated the relative expression of the two transcripts differently in the three prostate cancer cell lines. CYP24 enzyme activity is associated with the expression of the lower molecular weight transcript in the three prostate cancer cell lines as shown in Table 3 (D3=calcitriol), which describes the relationship between CYP24 protein activity phenotypes and exon 11-12 transcript size before (“C” in FIG. 3) and after (“T” in FIG. 3) calcitriol treatment in prostate cancer cell lines.

SMILES: C=C1/C(=C\C=C2/CCC[C@]3(C)[C@@H]([C@H](C)CCCC(C)(C)O)CC[C@@H]23)C[C@@H](O)C[C@@H]1O [calcitriol]
- potentiation of antitumor activity of docetaxel [1]: potentiate the antitumor activity of docetaxel
- sensitivity to calcitriol growth inhibition [2]: relatively resistant to calcitriol growth inhibition
- sensitivity to calcitriol growth inhibition [3]: sensitive to calcitriol growth inhibition
- sensitivity to calcitriol growth inhibition [4]: relatively resistant to calcitriol growth inhibition
- baseline and calcitriol-induced CYP24 enzyme profile ([5]; A549 lung cancer cells): high baseline and calcitriol induced CYP24 activity
- CYP24A1 enzyme activity profiles ([5]; DU145 prostate cancer cells): high baseline and calcitriol induced CYP24 activity
- CYP24A1 enzyme activity profiles ([5]; DU145 prostate cancer cells, listed as D3): High baseline & D3 inducible
- baseline and calcitriol-induced CYP24 enzyme profile ([5]; H520 lung cancer cells): negligible baseline and calcitriol-induced CYP24 activity
- baseline and calcitriol-induced CYP24 enzyme profile ([5]; HCT116 colon cancer cells): high baseline and calcitriol induced CYP24 activity
- baseline and calcitriol-induced CYP24 enzyme profile ([5]; HT29 colon cancer cells): barely detectable baseline CYP24 activity that is calcitriol-induced
- CYP24A1 enzyme activity profiles ([5]; LNCaP prostate cancer cells): negligible baseline and calcitriol-induced CYP24 activity
- CYP24A1 enzyme activity profiles ([5]; LNCaP prostate cancer cells, listed as D3): Negligible: baseline & D3 inducible
- baseline and calcitriol-induced CYP24 enzyme profile ([5]; MCF7 breast cancer cells): barely detectable baseline CYP24 activity that is calcitriol-induced
- baseline and calcitriol-induced CYP24 enzyme profile ([5]; MDA231 breast cancer cells): high baseline and calcitriol induced CYP24 activity
- CYP24A1 enzyme activity profiles ([5]; PC3 prostate cancer cells): barely detectable baseline CYP24 activity that is calcitriol-induced
- CYP24A1 enzyme activity profiles ([5]; PC3 prostate cancer cells, listed as D3): Negligible baseline & high D3 inducible
- serum calcitriol elimination half life (T1/2) [6]: significantly lower T1/2 than the TC/TC genotype
- Exon 11-12 size (bp), D3 treated ([7]; DU145 prostate cancer cells): 135 bp
- Exon 11-12 size (bp), D3 treated ([7]; LNCaP prostate cancer cells): 307 bp
- Exon 11-12 size (bp), D3 treated ([7]; PC3 prostate cancer cells): 135 bp
